The assay deals with T1, GPR103 T102^2.61A (Homo sapiens, UniProt Q96P65, T102A).
T1 construct: we used human full-length QRFPR-encoding plasmids; expressed in transfected cells; host or cells: HEK293 cells, pCAGGS vector
T1 sequence (Q96P65 1-431 T102A): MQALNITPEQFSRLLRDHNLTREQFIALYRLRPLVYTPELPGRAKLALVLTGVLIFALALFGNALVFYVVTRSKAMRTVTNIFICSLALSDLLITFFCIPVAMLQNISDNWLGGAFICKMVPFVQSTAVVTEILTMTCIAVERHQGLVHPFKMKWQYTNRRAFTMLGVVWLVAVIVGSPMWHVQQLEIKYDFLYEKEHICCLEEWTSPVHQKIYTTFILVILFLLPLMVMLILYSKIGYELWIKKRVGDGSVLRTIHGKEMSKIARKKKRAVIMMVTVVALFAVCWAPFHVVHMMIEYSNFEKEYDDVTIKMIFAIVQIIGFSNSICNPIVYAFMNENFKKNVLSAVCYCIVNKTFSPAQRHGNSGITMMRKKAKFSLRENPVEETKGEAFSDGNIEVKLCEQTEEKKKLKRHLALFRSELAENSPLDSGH
Description: TGFα shedding assay; Exp. level WT (1:1). The format is cell-based. The procedure:
For the TGFα shedding assay and the flow cytometry analysis, we used human full-length QRFPR-encoding plasmids. Specifically, GPR103 was N-terminally modified with an HA signal sequence followed by a FLAG epitope and then a flexible linker ([…]; the FLAG epitope is underlined) and inserted into the pCAGGS vector. Plasmid encoding GPR103 mutants were generated using Quickchange Site-Directed Mutagensis kit (Agilent).
The TGFα shedding assay was performed as described previously with minor modifications. Plasmid transfection was performed in a 6-well plate with a mixture of 500 ng (per well in a 6-well plate) AP-TGFα-encoding plasmid and 200 ng GPR103-encoding plasmid. After 1-day culture, the transfected cells were harvested by trypsinization, pelleted by centrifugation at 190 × g for 5 min, and washed once with 5 mM HEPES (pH 7.4)-containing Hank’s Balanced Salt Solution (HBSS). After centrifugation, the cells were resuspended in 8 mL of the HEPES-containing HBSS. The cell suspension was seeded in a 96-well culture plate (cell plate) at a volume of 90 μL (per well hereafter) and incubated in a 37 °C incubator with 5% CO2 for 30 min. […] After spinning the cell plates at 190 × g for 2 min, 80 μL of conditioned media was transferred to an empty 96-well plate (conditioned media (CM) plate). Then, 80 μL of AP reaction solution (10 mM p-nitrophenylphosphate (p-NPP), 120 mM Tris-HCl (pH 9.5), 40 mM NaCl, and 10 mM MgCl2) was dispensed into the cell plates and the CM plates. Absorbance at 405 nm of the plates was measured using a microplate reader (SpectraMax 340 PC384, Molecular Devices) before and after 1-h incubation at room temperature. Ligand-induced AP-TGFα release was calculated by subtracting spontaneous AP-TGFα release signal from ligand-induced AP-TGFα release signal. The AP-TGFα release signals were fitted to a four-parameter sigmoidal concentration–response curve, using the Prism 10 software (GraphPad Prism). For each replicate experiment, the pEC50 parameter (negative logarithmic values of EC50 values) of the individual GPR103 mutants were normalized to that of the wild-type GPR103 performed in parallel, and resulting ∆pEC50 values were used to denote ligand response activity of the mutants. […]
Exp. le vel: WT (1:5 0)Exp. le vel: WT (1:5 0)Exp. le vel: WT (1:5 0)Exp. le vel: WT (1:2 0)Exp. le vel: WT (1:2 0)Exp. le vel: WT (1:1 0) […]
L1 4N - t e r mA F2 5N - t e r mA I 2 6N - t e r mA Y 2 9N - t e r mA C 9 82 .5 7A T10 22 .6 1A Exp . l eve l: WT (1 :5)Exp . l evel : >WT (1 :1)Exp. le vel: WT (1:2 0)Exp. le vel: WT (1:2 0)Exp. le vel: WT (1:5 0)Exp . l eve l: WT (1 :1) […]
Exp. le vel: WT (1:1 0)Exp. le vel: WT (1:2 0) C 1 1 83 .2 5AExp. le vel: WT (1:5 0)Exp. le vel: WT (1:5 0)Exp. le vel: WT (1:2 0)Exp . l eve l: WT (1 :5) […]
Exp. le vel: WT (1:5 0)Exp. le vel: WT (1:1 0)Exp. le vel: WT (1:5 0) E203ECL2AExp . l evel : >WT (1 :1)Exp. le vel: WT (1:5 0)Exp. le vel: WT (1:5 0) […]
Exp . l eve l: WT (1 :1) F28Exp. le vel: WT (1:5 0) C 2 8 56 .4 7AExp. le vel: WT (1:2 0) WExp. le vel: WT (1:2 0) F28Exp. le vel: WT (1:5 0)Exp . l evel : >WT (1 :1) […]
Exp. le vel: WT (1:5 0)Exp. le vel: WT (1:5 0) C 3 2 77 .4 8AExp . l eve l: WT (1 :5)Exp . l evel : >WT (1 :1)Exp . l evel : >WT (1 :1) […]
Suppl eme nt ary Figure 1 | Mutational analysis of GPR103. […]
mutants. Data are presented as mean values ± SEM, normally n=3-5; dots), each performed in triplicate. b-d Cell-surface expression (b) and QRFP26-in-duced activation of GPR103 (c, d) were analyzed by the flow cytometry and the TGFα shedding assay, respectively. From the concentration–response curves (a), Emax (c) and ΔpEC50 (d) values relative to the wild type were calculated. Colors in the mutant bars indicate an expression level matching to that of titrated wild type. Statistical analyses were performed using the ordinary one-way ANOVA followed by Dunnett tests with the expression-matched […]

Where two headings read alike, the source gives them in different places. No end group written: not given here.

Regarding TSGPLGNLAEELNGYSRKKGGFSFRF-NH2 [QRFP26], the Emax runs as follows: (Exp. #1) 102.50 % WT; (Exp. #2) 94.07 % WT; (Exp. #3) 109.18 % WT; (mean, read-out: Emax) 102%; (n = 3, read-out: Emax) 105 ± 3.6%. Besides, the EC50 (commonly the concentration at which the effect is half-maximal) (n = 3) is 20.4 nM.
